Literature values, collected in publication PMC12785453, “Oral Fluid Concentrations and Pharmacological Effects of Clephedrone and Methylone in Humans” (International Journal of Molecular Sciences, 2025).
Values joined by “and” are separate entries in the source; they are usually repeats but may differ in a detail not shown here. Identical values can stand only once.

Legend:
humans = conditions: mephedrone, previous studies; cited from earlier work
[1] = cited from earlier work

In the case of CNC(C)C(=O)c1ccc(C)cc1 (stereo not shown) [mephedrone, 4-methylmethcathinone], the “Effects returned to baseline after” value (humans) is listed as 2 to 3 h, the “Time of peak effects” value (humans) is listed as 0.75 h and 0.75 to 1 h and the “Tmax in oral fluid” value [1] is listed as 2 h. For the same molecule, the Tmax in plasma [1] was 1.25 h.
